# Experimental data: patent publication US20050222263A1, “Compositions against stress-related diseases and methods for treating stress-related diseases” (Ajinomoto Co., Inc., priority 2002, published 2005)
# How the values were obtained:
# [1] = test system: animal model of irritable bowel syndrome (wrap-restraint stress); assay: wrap-restraint stress irritable bowel syndrome model, amount of feces excreted; assay type: in vivo, Wistar male rats; details: oral, 40 minutes before wrap-restraint stress; lysine hydrochloride 1 g/kg, alprazolam 10 mg/kg; vs control
# Protocol: An animal model of irritable bowel syndrome was prepared according to the method as described by Williams et al. (Williams, C. L., Villar, R. G., Peterson, J. M., Burks, T. F., “Stress-induced changes in intestinal transit in the rat: a model for irritable bowel syndrome,” Gastroenterol., vol. 94, pp. 611-621 (1988)). That is, a cotton tape was placed around the anterior limbs of seven-week-old Wistar male rats, the rats were kept in a bracket cage, and then the amount of feces excreted during 2 hours was measured. A test compound was orally administered 40 minutes before starting the wrap-restraint stress. The following groups were examined: 1) control group; 2) a group to which lysine hydrochloride (1 g/kg) alone was given; 3) a group to which a minor tranquilizer alprazolam (10 mg/kg; Takeda Chem. Ind.) alone was given; and 4) a combination group to which lysine hydrochloride (1 g/kg) and alprazolam (10 mg/kg) were given. Each group consisted of 10 animals.
# [2] = test system: model for gastric ulcer caused by water immersion under restraint; assay: water-immersion restraint stress gastric ulcer model, intragastric hemorrhage; assay type: in vivo, Wistar male rats; details: in powdered feed; paroxetine 298 mg/kg diet, lysine hydrochloride 13.3 g/kg diet, arginine 13.3 g/kg diet; water-immersion restraint stress 5 hours
# Protocol: A widely used model for gastric ulcer caused by water immersion under restraint was used. That is, rats were placed in a stress cage and immersed in water to the chest for 5 hours (at a temperature of 22-25° C.). The stomach was removed and the degree of intragastric hemorrhage was observed and the hemorrhage area was calculated using an NHI image software.
# The test compound was evaluated as follows. Five-week-old Wistar male rats were divided into three groups. The first group was bred with a normal powdered feed; the second group with a powdered feed to which was added a selective serotonin reuptake inhibitor (SSRI) (paroxetine; Glaxo-SmithKline; 298 mg/kg diet) alone; and the third group with a powdered feed containing the same amount of the same SSRI and lysine hydrochloride (13.3 g/kg diet) to which was additionally added arginine (13.3 g/kg diet). Each group consisted of 10 animals. Rats could freely feed before they reached 14 weeks of age. Thereafter, no feed and water were given for 2 days, and on day 3, all of the rats were subjected to the water-immersion restraint stress for 5 hours.
SMILES,effect on stress-induced increase of amount of feces excreted during 2 hours [1],intragastric hemorrhage (hemorrhage area) [2]
Cc1nnc2n1-c1ccc(Cl)cc1C(c1ccccc1)=NC2 [alprazolam],no clear effect was observed,
Cl.NCCCC[C@H](N)C(=O)O [lysine hydrochloride],no clear effect was observed,
"Fc1ccc([C@@H]2CCNC[C@H]2COc2ccc3c(c2)OCO3)cc1 [SSRI, paroxetine]",,significantly exacerbated the intragastric hemorrhage
